The results in this text go back to publication PMC5701173, “An activity-dependent proximity ligation platform for spatially resolved quantification of active enzymes in single cells” (Nature Communications, 2017).

pIC50: −log10 of the molar value.

The test has as its target T1, Neutral cholesterol ester hydrolase 1 (NCEH1) (Homo sapiens, UniProt Q6PIU2).
T1 construct: endogenous full-length enzyme in live PC3 cells
T1 sequence (Q6PIU2 1-408): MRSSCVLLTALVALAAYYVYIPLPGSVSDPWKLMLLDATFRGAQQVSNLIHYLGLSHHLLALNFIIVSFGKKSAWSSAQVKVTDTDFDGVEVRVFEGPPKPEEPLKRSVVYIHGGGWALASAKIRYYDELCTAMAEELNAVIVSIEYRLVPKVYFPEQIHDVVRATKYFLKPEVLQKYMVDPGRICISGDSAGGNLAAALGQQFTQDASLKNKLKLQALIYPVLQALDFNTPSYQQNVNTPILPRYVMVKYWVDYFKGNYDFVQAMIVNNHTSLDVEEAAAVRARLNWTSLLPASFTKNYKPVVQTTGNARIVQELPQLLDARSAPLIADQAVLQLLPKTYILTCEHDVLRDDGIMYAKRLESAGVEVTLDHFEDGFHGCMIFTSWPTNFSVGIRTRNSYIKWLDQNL
The experiment in a line: competitive activity-dependent proximity ligation (FP-Bio probe) in live cells; gel-based ABPP in SKOV3. Format: cell-based.

As a reminder, the pIC50 is −log10 of the IC50, conventionally taken in molar units. Low values mean a high IC50, high ones a low IC50. Consider `CC(C)c1ccccc1OC(=O)NCCc1ccc2ccccc2c1` [JW480], for which the pIC50 is 8.22.
